Here are results for two molecules from ChEMBL document CHEMBL3091333, “Design, synthesis and biological evaluation of novel 4-anilinoquinazolines with C-6 urea-linked side chains as inhibitors of the epidermal growth factor receptor” (Bioorg Med Chem, 2013).

The source made the active and inactive calls. The calls are words filed in the database; no cut-off is given here.

In assay [1] the target is Proto-oncogene tyrosine-protein kinase receptor Ret (Homo sapiens, UniProt P07949). As to the kind of experiment: Inhibition of recombinant RET (unknown origin) using poly (Glu, Tyr) 4:1 as substrate after 60 mins by ELISA.
The target of assay [2] is Insulin-like growth factor 1 receptor (Homo sapiens, UniProt P08069). As to the kind of experiment: Inhibition of IGF1R (unknown origin) expressed in baculovirus expression system using poly (Glu, Tyr) 4:1 as substrate after 60 mins by ELISA.
The target of assay [3] is Fibroblast growth factor receptor 1 (Homo sapiens, UniProt P11362). Put plainly: Inhibition of FGFR1 (unknown origin) expressed in baculovirus expression system using poly (Glu, Tyr) 4:1 as substrate after 60 mins by ELISA. For orientation: In an ELISA, binding on a coated surface is turned into a signal by an enzyme label.
Assay [4] addresses T1, Epidermal growth factor receptor (Homo sapiens, UniProt P00533). As to the kind of experiment: Inhibition of wild type EGFR (unknown origin) expressed in baculovirus expression system using poly (Glu, Tyr) 4:1 as substrate after 60 mins by ELISA.
A further assay concerns A-431. As to the kind of experiment: Antiproliferative activity against human A431 cells after 72 hrs by SRB assay. The class given is functional, cell-based. Conditions: A-431, 72 h. (In SRB staining, fixed cells bind dye roughly in proportion to their protein.)
The target in assay [5] is T1, Epidermal growth factor receptor. Put plainly: Inhibition of EGF-induced EGFR phosphorylation in human A431 cells assessed as decrease in ERK phosphorylation at 0.01 to 10 uM incubated for 1 hr prior to EGF induction measured after 10 mins by Western blotting analysis. The format is cell-based. Conditions: A-431.
In assay [6] the target is Receptor tyrosine-protein kinase erbB-4 (Homo sapiens, UniProt Q15303). As to the kind of experiment: Inhibition of recombinant ErbB4 (unknown origin) using poly (Glu, Tyr) 4:1 as substrate after 60 mins by ELISA.
Assay [7] addresses Vascular endothelial growth factor receptor 1 (Homo sapiens, UniProt P17948). Put plainly: Inhibition of recombinant FLT-1 (unknown origin) using poly (Glu, Tyr) 4:1 as substrate after 60 mins by ELISA.
For assay [8], the target named is Platelet-derived growth factor receptor beta (Homo sapiens, UniProt P09619). As to the kind of experiment: Inhibition of recombinant PDGFR-beta (unknown origin) using poly (Glu, Tyr) 4:1 as substrate after 60 mins by ELISA.
Assay [9] has as its target Vascular endothelial growth factor receptor 2 (Homo sapiens, UniProt P35968). As to the kind of experiment: Inhibition of KDR (unknown origin) expressed in baculovirus expression system using poly (Glu, Tyr) 4:1 as substrate after 60 mins by ELISA.
The target in assay [10] is Tyrosine-protein kinase ABL1 (Homo sapiens, UniProt P00519). As to the kind of experiment: Inhibition of recombinant ABL (unknown origin) using poly (Glu, Tyr) 4:1 as substrate after 60 mins by ELISA.
The next assay deals with Ephrin type-A receptor 2 (Homo sapiens, UniProt P29317). Put plainly: Inhibition of recombinant EPHA2 (unknown origin) using poly (Glu, Tyr) 4:1 as substrate after 60 mins by ELISA.
In assay [11] the target is Epidermal growth factor receptor (Homo sapiens, UniProt P00533, L858M/T790M). Put plainly: Inhibition of EGFR T790M/[…] double mutant (unknown origin) expressed in baculovirus expression system using poly (Glu, Tyr) 4:1 as substrate after 60 mins by ELISA.
Assay [12] concerns the target Macrophage-stimulating protein receptor (Homo sapiens, UniProt Q04912). As to the kind of experiment: Inhibition of recombinant RON (unknown origin) using poly (Glu, Tyr) 4:1 as substrate after 60 mins by ELISA.
For assay [13], the target named is T1, Epidermal growth factor receptor. Put plainly: Inhibition of EGF-induced EGFR phosphorylation in human A431 cells at 0.01 uM incubated for 1 hr prior to EGF induction measured after 10 mins by Western blotting analysis. The class given is cell-based. Conditions: A-431. Background: A western blot detects proteins with antibodies after separation by electrophoresis.

For assay [14], the target named is Platelet-derived growth factor receptor alpha (Homo sapiens, UniProt P16234). Put plainly: Inhibition of recombinant PDGFR-alpha (unknown origin) using poly (Glu, Tyr) 4:1 as substrate after 60 mins by ELISA.
The target in assay [15] is Receptor tyrosine-protein kinase erbB-2 (Homo sapiens, UniProt P04626). Put plainly: Inhibition of ErbB2 (unknown origin) expressed in baculovirus expression system using poly (Glu, Tyr) 4:1 as substrate after 60 mins by ELISA.
The next assay relates to NCI-H1975. Put plainly: Antiproliferative activity against human NCI-H1975 cells expressing EGFR T790M mutant after 72 hrs by SRB assay. The class given is functional, cell-based. Conditions: NCI-H1975, 72 h.
The target in assay [16] is T1, Epidermal growth factor receptor. As to the kind of experiment: Inhibition of EGF-induced EGFR phosphorylation in human A431 cells incubated for 1 hr prior to EGF induction measured after 10 mins by Western blotting analysis. The class given is cell-based. Conditions: A-431.
Assay [17] has the same target. As to the kind of experiment: Inhibition of EGF-induced EGFR phosphorylation in human A431 cells assessed as decrease in AKT phosphorylation at 0.01 to 10 uM incubated for 1 hr prior to EGF induction measured after 10 mins by Western blotting analysis. The format is cell-based. The conditions noted are these: A-431.
Assay [18] has as its target Mast/stem cell growth factor receptor Kit (Homo sapiens, UniProt P10721). Put plainly: Inhibition of recombinant c-Kit (unknown origin) using poly (Glu, Tyr) 4:1 as substrate after 60 mins by ELISA.
In assay [19] the test system is Epidermal growth factor receptor (Homo sapiens), P00533 [T790M]. As to the kind of experiment: Inhibition of EGF-induced EGFR T790M mutant autophosphorylation in human NCI-H1975 cells at 10 uM incubated for 1 hr prior to EGF induction measured after 10 mins by Western blotting analysis. The format is cell-based.
Assay [20] shares this test system. Put plainly: Inhibition of EGF-induced EGFR T790M mutant phosphorylation in human NCI-H1975 cells assessed as AKT phosphorylation at < 10 uM incubated for 1 hr prior to EGF induction measured after 10 mins by Western blotting analysis. The class given is cell-based.
Assay [21] shares this test system. Put plainly: Inhibition of EGF-induced EGFR T790M mutant phosphorylation in human NCI-H1975 cells assessed as ERK phosphorylation at < 10 uM incubated for 1 hr prior to EGF induction measured after 10 mins by Western blotting analysis. The format is cell-based.
In assay [22] the target is T1, Epidermal growth factor receptor. As to the kind of experiment: Irreversible inhibition of EGFR (unknown origin) using 5-FAM-EEPLYWSFPAKKK-CONH2 as substrate at 100 fold IC50 preincubated for 30 mins followed by 100 fold dilution measured for 2 hrs.

Sequence of Epidermal growth factor receptor (Homo sapiens), P00533 [T790M] (P00533 whole entry T790M): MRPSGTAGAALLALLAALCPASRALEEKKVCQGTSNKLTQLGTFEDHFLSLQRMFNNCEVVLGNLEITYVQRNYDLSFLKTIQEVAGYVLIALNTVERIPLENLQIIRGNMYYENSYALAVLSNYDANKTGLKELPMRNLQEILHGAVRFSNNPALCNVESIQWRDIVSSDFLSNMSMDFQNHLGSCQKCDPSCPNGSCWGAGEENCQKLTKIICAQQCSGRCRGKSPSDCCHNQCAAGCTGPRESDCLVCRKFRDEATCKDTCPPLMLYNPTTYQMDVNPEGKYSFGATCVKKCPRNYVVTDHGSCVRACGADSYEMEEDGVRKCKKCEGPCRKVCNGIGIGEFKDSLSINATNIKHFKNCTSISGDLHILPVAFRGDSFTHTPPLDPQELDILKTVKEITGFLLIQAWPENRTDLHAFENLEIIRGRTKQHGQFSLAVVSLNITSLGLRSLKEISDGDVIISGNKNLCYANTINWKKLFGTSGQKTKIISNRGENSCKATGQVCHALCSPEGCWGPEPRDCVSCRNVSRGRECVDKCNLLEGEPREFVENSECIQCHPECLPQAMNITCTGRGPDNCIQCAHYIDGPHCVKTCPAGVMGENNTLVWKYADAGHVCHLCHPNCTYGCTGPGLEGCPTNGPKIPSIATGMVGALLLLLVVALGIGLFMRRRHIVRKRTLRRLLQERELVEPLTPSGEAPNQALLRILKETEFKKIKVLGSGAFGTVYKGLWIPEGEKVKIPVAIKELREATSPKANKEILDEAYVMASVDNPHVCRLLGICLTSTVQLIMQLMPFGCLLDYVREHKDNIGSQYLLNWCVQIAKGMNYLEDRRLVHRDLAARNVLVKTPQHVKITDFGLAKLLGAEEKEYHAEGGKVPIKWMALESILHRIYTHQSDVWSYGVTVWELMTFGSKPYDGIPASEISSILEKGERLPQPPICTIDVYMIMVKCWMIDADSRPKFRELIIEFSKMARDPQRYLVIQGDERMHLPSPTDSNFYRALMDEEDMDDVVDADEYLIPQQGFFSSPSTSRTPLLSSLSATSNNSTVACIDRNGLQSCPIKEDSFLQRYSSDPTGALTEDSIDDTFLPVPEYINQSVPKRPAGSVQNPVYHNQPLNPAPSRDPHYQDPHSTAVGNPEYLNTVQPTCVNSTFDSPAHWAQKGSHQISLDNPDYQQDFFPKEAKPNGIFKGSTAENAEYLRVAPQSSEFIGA
T1 sequence (P00533 whole entry): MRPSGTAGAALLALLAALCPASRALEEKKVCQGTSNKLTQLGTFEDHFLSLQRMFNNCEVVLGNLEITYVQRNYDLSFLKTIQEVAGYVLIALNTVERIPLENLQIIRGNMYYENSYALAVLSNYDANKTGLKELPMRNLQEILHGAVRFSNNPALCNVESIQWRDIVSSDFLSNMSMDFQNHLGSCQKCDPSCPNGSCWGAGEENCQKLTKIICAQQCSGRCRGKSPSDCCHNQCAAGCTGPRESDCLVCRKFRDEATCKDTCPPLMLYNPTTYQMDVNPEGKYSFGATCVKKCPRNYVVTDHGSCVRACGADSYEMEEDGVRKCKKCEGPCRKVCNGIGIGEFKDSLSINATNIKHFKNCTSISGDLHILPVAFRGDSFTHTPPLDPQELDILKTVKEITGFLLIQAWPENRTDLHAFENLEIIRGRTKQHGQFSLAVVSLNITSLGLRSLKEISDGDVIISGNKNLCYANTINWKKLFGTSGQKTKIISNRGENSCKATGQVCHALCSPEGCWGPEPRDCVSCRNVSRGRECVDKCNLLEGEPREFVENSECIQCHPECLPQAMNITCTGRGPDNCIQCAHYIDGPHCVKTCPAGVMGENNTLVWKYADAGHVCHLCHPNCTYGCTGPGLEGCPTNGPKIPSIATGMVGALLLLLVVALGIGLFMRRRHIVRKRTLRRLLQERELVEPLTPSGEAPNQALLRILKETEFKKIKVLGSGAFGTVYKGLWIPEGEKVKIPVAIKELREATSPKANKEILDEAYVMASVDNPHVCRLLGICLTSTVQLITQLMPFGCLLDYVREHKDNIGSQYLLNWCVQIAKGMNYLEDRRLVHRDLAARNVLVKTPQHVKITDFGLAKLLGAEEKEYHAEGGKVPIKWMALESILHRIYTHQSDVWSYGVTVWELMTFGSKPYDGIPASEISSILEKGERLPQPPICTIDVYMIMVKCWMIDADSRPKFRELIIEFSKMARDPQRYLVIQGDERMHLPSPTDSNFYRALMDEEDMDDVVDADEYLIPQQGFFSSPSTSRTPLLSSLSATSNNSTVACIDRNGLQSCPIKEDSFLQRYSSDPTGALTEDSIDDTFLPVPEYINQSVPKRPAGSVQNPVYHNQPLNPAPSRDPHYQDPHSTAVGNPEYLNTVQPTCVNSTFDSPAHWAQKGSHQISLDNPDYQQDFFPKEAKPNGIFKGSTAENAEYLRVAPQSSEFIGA
Sequence of Receptor tyrosine-protein kinase erbB-4 (Q15303 whole entry): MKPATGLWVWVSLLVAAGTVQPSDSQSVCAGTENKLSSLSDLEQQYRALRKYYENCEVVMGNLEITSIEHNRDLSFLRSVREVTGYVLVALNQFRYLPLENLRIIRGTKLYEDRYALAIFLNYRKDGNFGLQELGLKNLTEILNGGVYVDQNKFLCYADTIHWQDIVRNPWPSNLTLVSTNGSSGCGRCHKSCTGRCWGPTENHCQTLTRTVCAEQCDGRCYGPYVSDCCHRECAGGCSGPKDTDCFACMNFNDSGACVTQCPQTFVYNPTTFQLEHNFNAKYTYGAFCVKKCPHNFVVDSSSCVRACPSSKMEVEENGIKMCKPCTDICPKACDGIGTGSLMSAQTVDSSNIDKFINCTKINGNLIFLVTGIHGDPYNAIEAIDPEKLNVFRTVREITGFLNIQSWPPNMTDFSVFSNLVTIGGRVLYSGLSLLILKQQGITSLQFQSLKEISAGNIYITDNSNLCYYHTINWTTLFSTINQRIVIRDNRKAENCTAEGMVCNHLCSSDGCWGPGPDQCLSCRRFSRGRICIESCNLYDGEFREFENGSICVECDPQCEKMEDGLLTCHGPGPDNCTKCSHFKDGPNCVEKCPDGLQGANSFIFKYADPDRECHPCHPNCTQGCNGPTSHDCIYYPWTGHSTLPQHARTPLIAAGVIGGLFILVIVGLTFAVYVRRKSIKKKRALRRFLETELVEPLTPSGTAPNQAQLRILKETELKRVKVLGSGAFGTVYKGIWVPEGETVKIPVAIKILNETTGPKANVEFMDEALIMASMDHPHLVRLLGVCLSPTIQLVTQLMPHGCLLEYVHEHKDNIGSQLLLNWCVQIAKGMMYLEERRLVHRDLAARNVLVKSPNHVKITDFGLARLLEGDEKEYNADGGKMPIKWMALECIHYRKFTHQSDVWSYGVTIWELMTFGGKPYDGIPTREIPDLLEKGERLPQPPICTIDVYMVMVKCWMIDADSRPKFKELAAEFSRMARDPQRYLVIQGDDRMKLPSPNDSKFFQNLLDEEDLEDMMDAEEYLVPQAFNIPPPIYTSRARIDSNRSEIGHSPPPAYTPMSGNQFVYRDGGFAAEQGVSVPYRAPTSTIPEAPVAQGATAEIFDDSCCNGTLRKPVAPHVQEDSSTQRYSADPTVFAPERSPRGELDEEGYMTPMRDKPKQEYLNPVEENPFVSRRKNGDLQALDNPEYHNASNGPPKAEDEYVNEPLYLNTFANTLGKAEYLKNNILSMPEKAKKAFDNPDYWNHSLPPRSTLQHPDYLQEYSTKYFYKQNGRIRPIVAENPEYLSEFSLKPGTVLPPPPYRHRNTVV
Sequence of Platelet-derived growth factor receptor alpha (P16234 whole entry): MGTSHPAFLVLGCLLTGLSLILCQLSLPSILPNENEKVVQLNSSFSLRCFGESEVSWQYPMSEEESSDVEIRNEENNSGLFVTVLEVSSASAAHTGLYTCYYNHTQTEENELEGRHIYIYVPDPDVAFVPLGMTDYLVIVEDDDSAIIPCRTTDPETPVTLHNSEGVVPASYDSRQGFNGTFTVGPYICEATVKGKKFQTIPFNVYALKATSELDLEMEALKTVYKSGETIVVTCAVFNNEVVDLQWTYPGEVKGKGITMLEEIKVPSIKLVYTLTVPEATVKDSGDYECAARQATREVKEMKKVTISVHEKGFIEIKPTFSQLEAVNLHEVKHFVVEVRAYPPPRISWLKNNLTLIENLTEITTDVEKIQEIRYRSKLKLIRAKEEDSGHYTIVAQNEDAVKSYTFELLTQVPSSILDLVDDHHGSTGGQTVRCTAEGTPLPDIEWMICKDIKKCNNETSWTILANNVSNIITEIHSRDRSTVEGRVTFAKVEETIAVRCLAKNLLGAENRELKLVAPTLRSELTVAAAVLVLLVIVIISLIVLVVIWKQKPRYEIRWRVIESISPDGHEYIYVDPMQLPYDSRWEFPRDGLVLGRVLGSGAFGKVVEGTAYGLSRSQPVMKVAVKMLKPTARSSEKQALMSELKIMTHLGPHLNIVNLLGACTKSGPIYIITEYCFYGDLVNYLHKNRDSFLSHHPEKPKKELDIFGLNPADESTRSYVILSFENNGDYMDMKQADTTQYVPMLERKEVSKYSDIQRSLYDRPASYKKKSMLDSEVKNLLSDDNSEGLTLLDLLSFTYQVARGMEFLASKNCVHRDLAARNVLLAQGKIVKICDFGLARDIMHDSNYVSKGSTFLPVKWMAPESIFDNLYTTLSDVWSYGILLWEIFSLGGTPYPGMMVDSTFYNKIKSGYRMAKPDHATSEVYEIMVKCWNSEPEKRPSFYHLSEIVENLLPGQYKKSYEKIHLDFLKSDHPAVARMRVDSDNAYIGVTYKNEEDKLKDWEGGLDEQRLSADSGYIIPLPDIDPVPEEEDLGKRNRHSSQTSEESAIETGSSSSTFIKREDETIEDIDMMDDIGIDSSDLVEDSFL

As to `CCN(CC)CCCNC(=O)Nc1cc2c(Nc3ccc(F)c(Cl)c3)ncnc2cc1O[C@H]1CCOC1`, the IC50 – broadly, the midpoint of a concentration-inhibition curve – in assay [1] is 0.347 µM; in assay [2] it was greater than 10 µM; in assay [3] it was greater than 10 µM; in assay [4], 0.032 µM; in the assay on A-431, 0.196 µM; in assay [6] it was 0.008 µM. In addition, the 50% inhibitory concentration (IC50) was greater than 10 µM in [7]; greater than 10 µM in assay [8]; greater than 10 µM in assay [9]; 0.566 µM in assay [10]; greater than 10 µM at Ephrin type-A receptor 2; 3.06 µM in assay [11]. The IC50 in [12] is greater than 10 µM; in assay [14], greater than 10 µM; in assay [15], 0.078 µM; in the assay with NCI-H1975 it was 4.3 µM; in [18], greater than 10 µM. Further, the inhibition entry in assay [5], in assay [13] and in [17] was “Active” in each case. Further, in assay [16], the inhibition entry was “Dose-dependent effect”.

For `O=C(NCCN1CCCC1)Nc1cc2c(Nc3ccc(F)c(Cl)c3)ncnc2cc1O[C@H]1CCOC1`, the inhibition entry in [19] and in assay [22] was “Active” each time. For the same molecule, the inhibition entry in assay [20] and in [21] was “inactive” in each case. Moreover, the IC50 in assay [1] is 0.223 µM; in assay [2] it was greater than 10 µM; in [3], greater than 10 µM; in assay [4], 0.068 µM; in the assay with A-431 it was 0.247 µM; in [6] it was 0.012 µM. For the same molecule, the IC50 was greater than 10 µM in assay [7]; greater than 10 µM in assay [8]; greater than 10 µM in assay [9]; greater than 10 µM in assay [10]; greater than 10 µM on Ephrin type-A receptor 2; 0.061 µM in assay [11]. Moreover, the IC50 in assay [12] was 6.1 µM; in [14], greater than 10 µM; in assay [15], 0.112 µM; in the assay on NCI-H1975, 5.3 µM; in assay [18], greater than 10 µM.
